The subject of one series is L6. As to the kind of experiment: Cytotoxicity against rat L6 cells. Format: cell-based.
Series [1] in a line: Selectivity index, ratio of IC50 for rat L6 cells to IC50 for Plasmodium falciparum K1. It is filed as toxicity, cell-based. The note with it: L6 cells versus Plasmodium falciparum K1, read-out: Ratio IC50.
Series [2] in a line: Selectivity index, ratio of IC50 for rat L6 cells to IC50 for Trypanosoma brucei rhodesiense STIB900. It is filed as toxicity, cell-based. The note with it: L6 cells versus Trypanosoma brucei rhodesiense STIB900, read-out: Ratio IC50.
Another series relates to Plasmodium falciparum. As to the kind of experiment: Antiplasmodial activity against Plasmodium falciparum K1. Format: functional, organism-based.
Series [3] relates to Trypanosoma brucei rhodesiense. As to the kind of experiment: Antitrypanosomal activity against Trypanosoma brucei rhodesiense STIB900. It is filed as functional, organism-based.

What is called IC50 is the concentration that inhibits the measured activity by half. As to `CC1=CC(=O)[C@@]23CC[C@@H]4C(C)(C)CCC[C@@]45C[C@]24[C@@H]1C[C@H]1C(C)(C)OC(=C(C(C)C)C3=O)[C@]14O5` [PEROVSKONE B], the IC50 with L6 was determined as 5.77 µM; in the series with Plasmodium falciparum it was 0.18 µM; in series [3], 15.9 µM. The selectivity ratio amounted to 69.6 in series [1] and 0.78 in series [2].
Consider `C=CC1=C[C@@H]2[C@@H]3[C@]4(C(C)C)C(=O)[C@]5(CC[C@H]6C(C)(C)CCC[C@]67C[C@]25[C@@](OC[C@@]3(C)O)(O7)C4=O)C1` [SALVADIONE C], for which the IC50 in the series on L6 is over 90 µM; in the series on Plasmodium falciparum, 1.43 µM; in series [3], 4.33 µM. Also, the selectivity ratio amounted to 86.6 in series [1] and 43.2 in series [2].

Values taken from ChEMBL document CHEMBL1926585, “Triterpenoids with rare carbon skeletons from Salvia hydrangea: antiprotozoal activity and absolute configurations” (J Nat Prod, 2011).
